Results taken from US20230234996A1, “PI3K GAMMA INHIBITOR PEPTIDE FOR TREATMENT OF FIBROPROLIFERATIVE VASCULAR DISEASES” (Kither Biotech S.r.l., priority 2020, published 2023).
Entries after “also recorded” stand apart in the source; their conditions may differ.

Tests used:
[1] = tested on: C5a-mediated Akt phosphorylation (Ser-473), relying on the catalytic activity of PI3Kγ, RAW264 macrophages; assay: C5a-mediated Akt phosphorylation in macrophages (Western blot); format: cell-based; conditions: then C5a 5 min
Procedure: A. Schematic representation of the cell-permeable PI3Kγ competing peptide. The 126-150 region of PI3Kγ was fused to the cell-penetrating peptide Penetratin 1 (P1). A control peptide was generated by insertion of two point mutations (K>A and R>A at position 1 and 5 of the PI3Kγ sequence, respectively). B. RAW macrophages were pre-treated with vehicle, the PI3Kγ peptide (10 μM) or the PI3Kγ kinase inhibitor AS605240 (1 μM) for 1 hour and then with C5a (50 μM) for 5 minutes. Representative Western blot images of phospho-AKT (Ser-473) and total AKT (left) and ratio quantification (right) are shown. GAPDH was used as loading control. n=3. C. Incorporation by primary VSMC of a FITC-labelled PI3Kγ peptide at 1 h, 5 h, 24 h and 30 h after incubation. D. Quantification of FITC-associated fluorescence intensity inside VSMC area. C5a-mediated Akt phosphorylation in macrophages: After 3 h starvation in serum-free medium, RAW264 macrophages were pre-treated with the PI3Kγ competing peptide (25 μM) or the PI3Kγ inhibitor AS-605240 (1 μM; MedChemExpress) or DMSO for 30 min and stimulated for 5 min with 50 nM of C5a (Sigma Aldrich). Akt phosphorylation at Ser-473 was detected by Western blot using a Ser473 Akt-specific antibody (Cell Signaling Technology).

[2] = tested on: intracellular cAMP in primary VSMC; assay: cAMP dynamics with FRET-based TEpacVV biosensor; format: cell-based, mouse; conditions: for cAMP level regulated by PDE3 (cilostamide response): cilostamide 1 μM; for cAMP production in response to forskolin: Rmax = forskolin 2.5 μM + IBMX 200 μM; for cAMP level regulated by PDE4 (rolipram response): rolipram 1 μM
Procedure: A. Left panel: Average changes in intracellular cAMP concentration ([cAMP]i) in primary VSMC from WT (top), PI3Kγ KO (middle) and PI3Kγ-KD (bottom) mice and expressing the ^TEpac^VV biosensor. The black line represents the average F480/F535 emission ratio over time in response to 2.5 μM forskolin (fsk) stimulation and fsk (2.5 μM)+IBMX (200 μM) treatment. B. Histograms representing the mean values for forskolin responses. Results are expressed as a percentage of the maximal ratio change (% of Rmax(IBMX response)) determined by the final application of forskolin (2.5 μM)+IBMX (200 μM). Data shown are the means±SEM. (n=5 mice). Data are presented as mean±SEM and were compared using a Kruskal-Wallis test. C. Homogenous time-resolved fluorescence (HTRF) dosage of intracellular cAMP from WT, PI3Kγ KO or PI3Kγ KD primary VSMC after 30 min treatment with vehicle or 0.5 μM Forskolin.
A. Average changes in [cAMP]i in primary VSMC from WT (top), PI3Kγ KO (middle) and PI3Kγ-KD (bottom) mice and expressing the ^TEpac^VV biosensor. The trace indicates the average F480/F535 emission ratio over time in response to 2.5 μM forskolin, cilostamide (1 μM), rolipram (1 μM) and forskolin (2.5 μM)+IBMX (200 μM) treatment. B. Histograms representing the mean values for rolipram and cilostamide responses. Results are expressed as a percentage of the maximal ratio change (% of Rmax (IBMX response)) determined by the final application of forskolin (2.5 μM)+IBMX (200 μM). Data are presented as mean±SEM (n>22 with 4 different mice) and were compared using a Kruskal-Wallis test. C. Phosphodiesterase activity detected in PDE4D immunoprecipitates from primary VSMC. Data shown are the means±SEM and compared using one-way ANOVA followed by Bonferroni post-hoc test (n=3). D. Representative Western blot of PDE4D immunoprecipitates.
Measurement of cAMP dynamics: Primary SMC were seeded on coverslips and infected with the ^TEpac^VV-encoding type-5 adenovirus (˜100 particles per SMC) as described elsewhere. Coverslips were placed in a microscope chamber continually perfused (2 mL·min^−1) with BBS buffer (125 mM NaCl, 2 mM CaCl2), 1 mM MgCl2, 1.25 mM NaH2PO4, 26 mM NaHCO3, 25 mM glucose) saturated with 95% 02-5% CO2. Ratiometric analyses were performed as follows: fluorescence was excited with a LED source at 435 nm and fluorescence emission was monitored with a dichroic mirror (T450LPXR) and alternating emission filters for the donor (HQ480/40) and acceptor (D535/40). Pairs of images were recorded with an Orca-ER CCD camera (Hamamatsu Photonics, Japan), at 20-s intervals. Changes in [cAMP]i are expressed as the ratio of donor fluorescence (F480) to acceptor fluorescence (F535). The ratios were multiplied by a same constant for all experiments, such that the baseline ratio was 1 in basal conditions. The maximum ratio change (Rmax) was obtained by stimulating cells with 2.5 μM forskolin and […] IBMX (15879, Sigma Aldrich). Filters and mirrors were obtained from AHF analysentechnik AG, Tübingen, Germany.

PKA = conditions: reference [19]; cited from earlier work
primary VSMC = assay: Mouse SMC proliferation by BrdU incorporation; format: cell-based; conditions: for cell proliferation (BrdU incorporation): 25 μM peptide 24 h, PDGF 25 ng/ml with or without forskolin 25 μM, vs control peptide
Procedure: A. Representatives cross sections of injured femoral arteries stained with Masson Trichrome from the indicated hematopoietic chimeras. Scale bars=100 μM. Irradiated WT, PI3Kγ KD (KD) and PI3Kγ KO recipient mice were transplanted with bone marrow from the indicated donors to obtain the indicated chimeras. Irradiated WT mice were transplanted with bone marrow from WT, PI3Kγ KD or PI3Kγ KO to obtain the following hematopoietic chimeras: WT>WT, KD>WT and KO>WT. Irradiated KD recipient mice were transplanted with bone marrow from WT or PI3Kγ KD donor mice (WT>KD; KD>KD). Irradiated KO recipient mice were transplanted with bone marrow from WT or KO donors (WT>KO and KO>KO). B. Quantitative analysis of intima/media ratios of indicated hematopoietic chimeras. Histogram represents the neointima/media ratio for each chimera (n>6 mice for each group). Data are presented as mean±SEM and were compared using a one-way ANOVA test. C. Schematic representation of the experimental model used to investigate PI3Kγ implication in the control of SMC proliferation. D. Western blot of PI3Kγ expression in each genotype. […] (5<n<12 cultures for each genotype). Data are presented as mean±SEM and were compared using a one-way ANOVA test.
A, B, C. […] BrdU was added during the last 18 h (n=8 cultures for each genotype). Data are presented as mean±SEM and were compared using a one-way ANOVA test. D. Schematic model of PI3Kγ implication in VSMC proliferation. VSMC proliferation is induced by PDGF stimulation. […] This PI3Kγ recruitment could also concentrate phosphodiesterases (PDE) that counterbalance cAMP production by adenylate cyclase (AC) induced by other signals. By these mechanisms, PI3Kγ acts as an amplifier of VSMC synthetic transition.
Measure of mouse SMC proliferation: Primary mouse SMCs were sub-cultured onto 48-well cell culture plates in complete medium. Cells were treated or not with PDGF (520-BB-050, R&D Systems) and forskolin (F3917, Sigma Aldrich) for 24 h. For blocking peptide experiments, cells were incubated 24 h with 25 μM of control ([…]—SEQ ID No.: 13) or blocking peptide ([…]—SEQ ID No.: 14). Peptides were synthesized by GenScript (GenScript, Piscataway, N.J.). BrdU (00-0103, Invitrogen) incorporation assays were performed by classical immunofluorescence procedure using anti-BrdU antibody (11-5071, eBioscience) and DAPI. Proliferation rate is measured as the ratio of BrdU positive nuclei over total nuclei and expressed as fold increase.

PDE4D = PDE4D function in VSMC; format: cell-based; conditions: summary statement
[3] = forskolin-stimulated PI3Kγ-KD VSMC
[4] = forskolin-stimulated PI3Kγ-KO VSMC

Compound: O=C1NC(=O)/C(=C\c2ccc3nccnc3c2)S1 [AS-6052540]
- C5a-mediated Akt phosphorylation in macrophages ([1]; RAW macrophages pre-treated with inhibitor 1 μM): significantly reduced

Compound: CN(C(=O)CCCOc1ccc2[nH]c(=O)ccc2c1)C1CCCCC1 [cilostamide]
- cAMP level regulated by PDE3 (cilostamide response) [2, 3]: 17 % of IBMX response
- cAMP level regulated by PDE3 (cilostamide response) [2, 4]: 49 % of IBMX response
- cAMP level regulated by PDE3 (cilostamide response) ([2]; forskolin-stimulated WT VSMC): 25 % of IBMX response

Compound: C=C[C@@]1(C)CC(=O)[C@]2(O)[C@@]3(C)[C@@H](O)CCC(C)(C)[C@@H]3[C@H](O)[C@H](OC(C)=O)[C@@]2(C)O1 [forskolin]
- cAMP production in response to forskolin ([2]; 2.5 μM forskolin, PI3Kγ-KO primary VSMC): 52.57 % of IBMX response
- cAMP production in response to forskolin ([2]; 2.5 μM forskolin, WT primary VSMC): 24.09 % of IBMX response
- increase of forskolin cAMP response, PI3Kγ-KO compared to WT ([2]; 2.5 μM forskolin, p=0.03): 2.2 folds

Compound: COc1ccc(C2CNC(=O)C2)cc1OC1CCCC1 (stereo not drawn) [rolipram]
- cAMP level regulated by PDE4 (rolipram response) [2, 3]: 73 % of IBMX response
- cAMP level regulated by PDE4 (rolipram response) [2, 4]: 43 % of IBMX response
- cAMP level regulated by PDE4 (rolipram response) ([2]; forskolin-stimulated WT VSMC): 67 % of IBMX response

Compound: RQIKIWFQNRRMKWKKGAATHASPGQIHLVQRHPPSEESQAF (control peptide)
- interaction with PKA (PKA): does not interact with PKA

Compound: RQIKIWFQNRRMKWKKGKATHRSPGQIHLVQRHPPSEESQAF (KIT2014) [PI3Kγ peptide, The 126-150 region of PI3Kγ fused to the cell-penetrating peptide Penetratin 1 (P1)]
- cAMP levels in VSMC ([2]; peptide conjugated with Penetratin 1, summary statement): increases their cAMP levels
- cell proliferation (BrdU incorporation) (primary VSMC; PI3Kγ-KD primary VSMC): inhibited cell proliferation
- cell proliferation (BrdU incorporation) (primary VSMC; PI3Kγ-KO primary VSMC): no difference was observed
- VSMC proliferation (primary VSMC; VSMC in vitro, response to PDGF and forskolin, genotype not stated (summary statement)): abolished VSMC proliferation; also recorded: inhibits VSMC proliferation
- cell proliferation (BrdU incorporation) (primary VSMC; WT primary VSMC): inhibited cell proliferation
- C5a-mediated Akt phosphorylation in macrophages ([1]; RAW macrophages pre-treated with PI3Kγ peptide (25 μM b74; 10 μM b24)): unaltered
- PDE4D function (PDE4D): specifically blunted PDE4D function
